Data on one molecule can be found in patent US20090197934A1, “IMIDAZOLINYLMETHYL ARYL SULFONAMIDE” (priority 2008, published 2009).

The target of one series is T1, alpha-1A adrenoceptors (Homo sapiens, UniProt P35348).
T1 sequence (P35348 1-466): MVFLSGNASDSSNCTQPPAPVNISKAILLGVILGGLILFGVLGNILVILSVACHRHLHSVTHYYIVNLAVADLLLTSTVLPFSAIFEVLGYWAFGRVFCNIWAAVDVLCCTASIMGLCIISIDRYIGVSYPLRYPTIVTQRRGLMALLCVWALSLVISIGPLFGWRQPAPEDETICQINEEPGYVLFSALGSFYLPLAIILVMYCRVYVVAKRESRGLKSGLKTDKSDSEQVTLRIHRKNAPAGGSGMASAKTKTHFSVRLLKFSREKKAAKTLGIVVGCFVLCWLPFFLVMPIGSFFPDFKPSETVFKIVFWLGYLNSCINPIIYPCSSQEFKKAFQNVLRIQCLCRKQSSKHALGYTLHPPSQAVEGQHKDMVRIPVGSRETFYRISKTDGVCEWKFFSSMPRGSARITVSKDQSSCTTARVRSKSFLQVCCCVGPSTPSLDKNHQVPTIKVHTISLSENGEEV
Description: alpha-1A adrenoceptor partial agonist activity (intrinsic activity and pEC50). The class given is cell-based.

In series [1] the test system is Female Yucatan Micro-Swine. The series can be described thus: Conscious Pig Model (IUP, MAP and HR during iv infusion). The class given is in vivo. Here is the method:
In general, IUP is the intraurethral pressure and is measured as the 2 minute mean from the first peak of the urethral response (FIG. 1). MAP is the mean arterial blood pressure and is measured as the average blood pressure during the 2 minute section where IUP is measured. The durability is the slope of the IUP response in mmHg/min and is calculated immediately after the 2 minute IUP response for 5 minutes (2-7 minutes post the first peak) for the top 3 doses.
Sling Training: Female Yucatan Micro-Swine were trained to stay in a sling for up to 4 hours. Swine were exposed to progressively longer sling durations per IACUC sling-training guideline.
Surgical Instrumentation: Female Yucatan Micro-swine were instrumented with a telemetry device with both pressure and ECG monitoring capabilities (Data Sciences International St Paul Minn.). In addition, a Bardport low profile titanium VAP was placed subcutanteously for blood sampling. All devices were implanted by the surgical veterinarian at Roche Palo Alto. Briefly, the telemetry probe body was placed subcutaneously in the cervical region. The intra-arterial pressure catheter was advanced via the superficial cervical artery into the subclavian artery for blood pressure measurement. The ECG leads were placed intra-muscularly: one in the intercostal muscle between the T8-T10 regions on the left side, and the other in the intercostal muscles between the T1-T3 regions on the right side. The VAP was placed subcutaneously in the neck region, with the catheter advanced into the jugular vein. Swine were allowed to fully recover from the surgery (typically 10 days). […]
Experiment: After the swine was fully awake and stable (usually approximately 1 hour post wake up), baseline blood pressure, IUP, and heart rate parameters were determined. […]
Data Generating and Analysis Systems: Cardiovascular readings were generated by the TL11M3-D70-PCP (Data Sciences International, St. Paul, Minn.) telemetry device and associated hardware. […] IUP was monitored by a solid state catheter connected to a TA6000 Polygraph (Data Sciences International, St. Paul, Minn.). […]

In the case of `CS(=O)(=O)Nc1cc(F)c(CC2=NCCN2)c(Br)c1Cl` [Formula I, N-[3-Bromo-2-chloro-4-(4,5-dihydro-1H-imidazol-2-ylmethyl)-5-fluoro-phenyl]-methanesulfonamide], the “intrinsic activity, or efficacy, as a partial agonist” value on alpha-1A adrenoceptors (ideally between 0.35 to 0.60) is 0.45. Moreover, on alpha-1A adrenoceptors (read-out: affinity, or pEC50 value (converted)), the EC50 is 316 nM. Further, in series [1], the “maximum arterial blood pressure effect” value was “low” and the “selectivity for enhancement of intraurethral pressure (IUP) over blood pressure (MAP)” value is “selectivity for enhancement of intraurethral pressure (IUP) over blood pressure (MAP)”. In series [1] (compared to analogue compound lacking the 3-bromo and 5-fluoro substituents (FIG. 1b vs FIG. 1c)), the “durability of IUP response over time” value is listed as “unexpectedly increased durability of IUP response over time”.
